From article PMC3677620, “Cytotoxicity and In Vitro Antileishmanial Activity of Antimony (V), Bismuth (V), and Tin (IV) Complexes of Lapachol” (Bioinorganic Chemistry and Applications, 2013)
Values after ≈ are worked out from the molar mass of the structure shown. Values joined by “and” are separate entries in the source; they are usually repeats but may differ in a detail not shown here. Equal values may be shown once. Read-outs that look alike come from different tables or passages of the source.

Experiments:
L. amazonensis [1] = assay: In vitro classic microscopic test, intracellular amastigotes in infected murine peritoneal macrophages; format: cell-based, Leishmania amazonensis (IFLA/BR/1967/PH8); conditions: for IC50: Leishmania amazonensis, Peritoneal macrophage, 72 h; for IC50, half-maximal inhibitory response (Figure 2): intracellular L. amazonensis, curve of one representative experiment; for IC50: the inhibitory concentration that killed 50% of the L. amazonensis: intracellular amastigotes in Balb/c peritoneal macrophages, 3 days exposure, based on percentage of infected macrophages
Description: The World Health Organization (WHO) reference strain L. amazonensis (IFLA/BR/1967/PH8) was used and typed as previously described. Promastigote forms were grown at 25°C in M199 medium (Sigma) supplemented with 10% heat-inactivated fetal calf serum (Cultilab), 40 mmol/L HEPES (Amersham), 0.1 mmol/L adenine (Sigma), 0.0005% hemin (Sigma), 0.0002% biotin (Sigma), 50 units/mL penicillin, and […] streptomycin (Invitrogen).
(§1) Animals were kept in the Animal Facility of the Centro de Pesquisas René Rachou/FIOCRUZ in strict accordance to the Guide for the Care and Use of Experimental Animals. The procedures were approved by the Internal Ethics Committee in Animal Experimentation (CEUA) of Fundação Oswaldo Cruz (FIOCRUZ), Brazil (Protocol L-042/08). Mice were euthanized with CO2 in an induction chamber prior to macrophage removal. Balb/c mice were injected intraperitoneally with 2 mL of 3% sodium thioglycollate medium. After 72 h, peritoneal macrophages were removed by washing with cold RPMI 1640 medium and enriched by adherence to round glass coverslips (13 mm) placed in a 4-well culture plate. Cells (2 × 10^5 cells/well) were cultured (37°C, 5% CO2, 18 h) in RPMI supplemented with 10% heat-inactivated FBS (fetal bovine serum) prior to infection with parasites. Macrophages were exposed to stationary phase promastigotes (2 × 10^6/well) at a final ratio of 1 : 10. The plates were incubated at 37°C, 5% CO2, for 5 h in BOD to allow internalization of parasites. Then, the medium was removed for the remaining noninternalized parasites. Negative control included only infected macrophages and medium. Incubations were tested in duplicate in two independent experiments. The substances were serial diluted with RPMI 1640 medium supplemented with 10% FBS at five different concentrations (50 → 3.1 μg/mL). For compounds (3) and (6), the dilution was 10 → 0.016 μg/mL. […] Infected macrophages were exposed daily to the compounds for 3 consecutive days. After this period, coverslips were collected, stained with Panoptic (Laborclin), and subsequently mounted with Entellan (Merck) on glass slides.
The in vitro classic microscopic test enables direct counting to determine the percentage of infected cells and/or the number of amastigotes. Here, the IC50 values were calculated based on the percentage of infected macrophages.

HepG2 cells = assay: Cytotoxicity test, MTT method, HepG2 cells; conditions: for MLD50: the minimum lethal dose that killed 50% of the cells, HepG2: MTT, 24 h; for MLD50, the minimum lethal dose (Figure 2): hepatoma HepG2 cell, curve of one representative experiment
Description: (§2) Balb/c murine peritoneal macrophages were obtained as described above. Cytotoxicity was determined using the MTT method (3-(4,5-dimethylthiazol-2-yl)-2,5-diphenyl tetrazolium bromide) (Sigma). HepG2 cells were kept in RPMI medium supplemented with 10% FBS, and confluent monolayers were trypsinized, washed in RPMI, and transferred to 96-well microtiter plates (4 × 10^4 cells/well) for 16–18 h. Murine macrophages were used in the concentration 2 × 10^5 cells/well in 96-well microtiter plates. The compounds were serial diluted in different concentrations (10 → 0.16 mg/mL). In both tests, the medium was removed, and the compounds were incubated for 24 h (37°C, 5% CO2). Colorimetric reaction was developed following the incubation with MTT (37°C, 5% CO2, 4 h) and addition of acidified isopropanol. The reaction was read spectrophotometrically (Spectramax M5, Molecular Devices, San Francisco, CA) with a 570 nm filter and a background of 670 nm. Incubations were tested in triplicate in two independent experiments. The minimum dose that killed 50% of the cells (MLD50) was determined, and the values were plotted to generate dose-response curves using Microcal Origin Software (Northampton, MA, USA).

murine macrophages = assay: Cytotoxicity test, MTT method, murine peritoneal macrophages; conditions: for MLD50: the minimum lethal dose that killed 50% of the cells, macrophages: murine peritoneal macrophages, MTT, 24 h
Description: as §1
as §2, with “The cell lineage HepG2 A16 was derived from a human hepatocellular carcinoma cell line HepG2 (ATCC HB-8065) and obtained from America Type Culture Collection line (ATCC). Balb/c” for “Balb/c”

L. amazonensis [2] = test system: L. amazonensis; parameters: method as in PMID 15654435; conditions: strain MHOM/BR/77/LTB0016 ref 5; cited from earlier work
L. braziliensis = test system: L. braziliensis; parameters: method as in PMID 15654435; conditions: cited from earlier work

Compound	IC50 (L. amazonensis [1]; read-out: IC50: the inhibitory concentration that killed 50% of the L. amazonensis) [µg/mL]	MLD50: the minimum lethal dose that killed 50% of the cells, HepG2 (HepG2 cells) [µg/mL]	MLD50: the minimum lethal dose that killed 50% of the cells, macrophages (murine macrophages) [µg/mL]	IC50, half-maximal inhibitory response (Figure 2) (L. amazonensis [1]) [µg/mL]	IC50: the inhibitory concentration that killed 50% of the L. amazonensis (L. amazonensis [1])	MLD50, the minimum lethal dose (Figure 2) (HepG2 cells) [µg/mL]	IC50 (L. amazonensis [1]; read-out: IC50: the inhibitory concentration that killed 50% of the L. amazonensis, intracellular amastigotes in Balb/c peritoneal macrophages, 3 days exposure, based on percentage of infected macrophages) [µg/mL]	SI: selective index, HepG2 (HepG2 cells; MLD50/IC50 ratio, HepG2 cells versus L. amazonensis)	SI: selective index, macrophages (murine macrophages; MLD50/IC50 ratio, murine macrophages versus L. amazonensis)	IC50 against L. amazonensis, previous studies (L. amazonensis [2]) [µg/mL]	IC50 observed for L. braziliensis (L. braziliensis) [µg/mL]
C[C@@H]1[C@H](O)[C@@H](C)/C=C/C=C/C=C/C=C/C=C/C=C/C=C/[C@H](O[C@@H]2O[C@H](C)[C@@H](O)[C@H](N)[C@@H]2O)C[C@@H]2O[C@](O)(C[C@@H](O)C[C@@H](O)[C@H](O)CC[C@@H](O)C[C@@H](O)CC(=O)O[C@H]1C)C[C@H](O)[C@H]2C(=O)O [Amphotericin B]	0.73 ± 0.6 (≈ 0.79 µM)	644.59 ± 126.57	179.95 ± 8.84								
(Lp)(Ph3Sn) [(3)]		12.01 ± 0.17	1.6 ± 0.57	0.15	0.17 ± 0.03 µg/mL	11.9					
[Cl][Sn]([c]1ccccc1)([c]1ccccc1)[c]1ccccc1 [(6), triphenyltin chloride]		12.04 ± 8.42	0.73 ± 0.13	0.18	0.10 ± 0.11 µg/mL	18					
[Cl][Sb]([Cl])([c]1ccccc1)([c]1ccccc1)[c]1ccccc1 [(5), triphenylantimony dichloride]		157.46 ± 37.13	30.75 ± 6.01		11.61 ± 7.85 µg/mL						
(Lp)(Ph3Sb)OH [(2)]		325.22 ± 89.40	130.65 ± 40.52		> 10 µg/mL and 18.27 ± 5.58 µg/mL						
CC(C)=CCC1=C(O)C(=O)c2ccccc2C1=O [(7), 2-hydroxy-3-(3′-methyl-2-butenyl)-1,4-naphthoquinone]		201.77 ± 5.32	184.65 ± 6.58		15.48 ± 5.23 µg/mL		> 10	13.03	11.92	5.2 ± 0.70 (≈ 21.5 µM)	11.9 ± 6.9
[Cl][Bi]([Cl])([c]1ccccc1)([c]1ccccc1)[c]1ccccc1 [(4), Triphenylbismuth dichloride]		183.75 ± 4.77	25.15 ± 0.49	5.51	5.40 ± 0.16 µg/mL	187.1					
(Lp)(Ph3Bi)O0.5 [(1)]		58.38 ± 8.47	32.4 ± 8.20								
